{
  "source": "patent US20070264355A1",
  "about": "“BINARY COMPOSITIONS AND METHODS FOR STERILIZATION” (Binary, LLC, priority 2005, published 2007)",
  "key": {"Bacillus subtilis spores": {"test_system": "Bacillus subtilis spores", "experiment": "Microbicidal activity of commonly used antiseptics against Bacillus subtilis spores", "assay_type": "cell-based", "conditions": "inoculum 1865000 CFU", "procedure": "(§1) The performance of commonly used antiseptics was tested against Bacillus subtilis and Staphylococcus aureus, following the general procedure of Example 1, to assess the improvement provided by the binary system over these compounds.\nAfter 60 minutes of exposure to the organisms, the individual antiseptics, indicated in Table 15 and Table 16, were neutralized using the corresponding neutralizing solutions prepared as listed below in Materials. Chlorhexidine and IPA were neutralized with 500 microliters of a solution containing 3% Saponin, 3% Tween-80, 0.3% lecithin, and 0.1% histidine. Povidone Iodine was neutralized with 500 microliters of thiosulfate solution (2.4%)."}, "Staphylococcus aureus": {"test_system": "Staphylococcus aureus", "experiment": "Microbicidal activity of commonly used antiseptics against Staphylococcus aureus", "assay_type": "cell-based", "conditions": "inoculum 1475000 CFU", "procedure": "as §1\n[…] Chlorhexidine and IPA were neutralized with 500 microliters of a solution containing 3% Saponin, 3% Tween-80, 0.3% lecithin, and 0.1% histidine. Povidone Iodine was neutralized with 500 microliters of thiosulfate solution (2.4%)."}, "[1]": {"conditions": "two percent, compared to 70% isopropyl alcohol and 10% povidone-iodine; cited from earlier work"}},
  "data": [
    {"molecule": "[H]/N=C(\\N/C(=N/[H])NCCCCCCNC(=N)NC(=N)Nc1ccc(Cl)cc1)Nc1ccc(Cl)cc1", "note": "[Chlorhexidine, Chlorhexidine Gluconate]", "values": [
      {"measurement": "Log 10 (CFU + 1) Survivors", "setting": "Bacillus subtilis spores; Chlorhexidine 0.020% 60 min", "value": 5.8},
      {"measurement": "Log Reduction", "setting": "Bacillus subtilis spores; Chlorhexidine 0.020% 60 min", "value": 0.4},
      {"measurement": "Total Viability (CFU)", "setting": "Bacillus subtilis spores; Chlorhexidine 0.020% 60 min", "value": 672000, "unit": "CFU"},
      {"measurement": "Log 10 (CFU + 1) Survivors", "setting": "Bacillus subtilis spores; Chlorhexidine 0.200% 60 min", "value": 4.3},
      {"measurement": "Log Reduction", "setting": "Bacillus subtilis spores; Chlorhexidine 0.200% 60 min", "value": 2.0},
      {"measurement": "Total Viability (CFU)", "setting": "Bacillus subtilis spores; Chlorhexidine 0.200% 60 min", "value": 20020, "unit": "CFU"},
      {"measurement": "Log 10 (CFU + 1) Survivors", "setting": "Bacillus subtilis spores; Chlorhexidine 2% 60 min", "value": 5.0},
      {"measurement": "Log Reduction", "setting": "Bacillus subtilis spores; Chlorhexidine 2% 60 min", "value": 1.3},
      {"measurement": "Total Viability (CFU)", "setting": "Bacillus subtilis spores; Chlorhexidine 2% 60 min", "value": 102200, "unit": "CFU"},
      {"measurement": "Log 10 (CFU + 1) Survivors", "setting": "Bacillus subtilis spores; Chlorhexidine 20% 60 min", "value": 5.5},
      {"measurement": "Log Reduction", "setting": "Bacillus subtilis spores; Chlorhexidine 20% 60 min", "value": 0.7},
      {"measurement": "Total Viability (CFU)", "setting": "Bacillus subtilis spores; Chlorhexidine 20% 60 min", "value": 350000, "unit": "CFU"},
      {"measurement": "Log 10 (CFU + 1) Survivors", "setting": "Staphylococcus aureus; Chlorhexidine 0.020% 15 min", "value": 0.0},
      {"measurement": "Log Reduction", "setting": "Staphylococcus aureus; Chlorhexidine 0.020% 15 min", "value": 6.2},
      {"measurement": "Total Viability (CFU)", "setting": "Staphylococcus aureus; Chlorhexidine 0.020% 15 min", "value": 0, "unit": "CFU"},
      {"measurement": "Log 10 (CFU + 1) Survivors", "setting": "Staphylococcus aureus; Chlorhexidine 0.200% 15 min", "value": 0.0},
      {"measurement": "Log Reduction", "setting": "Staphylococcus aureus; Chlorhexidine 0.200% 15 min", "value": 6.2},
      {"measurement": "Total Viability (CFU)", "setting": "Staphylococcus aureus; Chlorhexidine 0.200% 15 min", "value": 0, "unit": "CFU"},
      {"measurement": "Log 10 (CFU + 1) Survivors", "setting": "Staphylococcus aureus; Chlorhexidine 2% 15 min", "value": 0.0},
      {"measurement": "Log Reduction", "setting": "Staphylococcus aureus; Chlorhexidine 2% 15 min", "value": 6.2},
      {"measurement": "Total Viability (CFU)", "setting": "Staphylococcus aureus; Chlorhexidine 2% 15 min", "value": 0, "unit": "CFU"},
      {"measurement": "Log 10 (CFU + 1) Survivors", "setting": "Staphylococcus aureus; Chlorhexidine 20% 15 min", "value": 0.0},
      {"measurement": "Log Reduction", "setting": "Staphylococcus aureus; Chlorhexidine 20% 15 min", "value": 6.2},
      {"measurement": "Total Viability (CFU)", "setting": "Staphylococcus aureus; Chlorhexidine 20% 15 min", "value": 0, "unit": "CFU"},
      {"measurement": "prevention of catheter-related infections", "setting": "[1]", "value": "superior"}
    ]}
  ]
}
